# Experimental data as given in paper PMC9898036, “VIP152 is a selective CDK9 inhibitor with pre-clinical in vitro and in vivo efficacy in chronic lymphocytic leukemia” (Leukemia, 2022).
# Like-named read-outs stand apart in the source and are kept apart here.
# Tests used:
# Experiment in all cases: DiscoverX KINOMEscan kinase profiling (468 assays)
# Assay type in all cases: binding
# [1] = target: human kinome (Homo sapiens, UniProt P16591); settings: FER; 100 nM; read-out: Percent Control
# Method in brief: (§1)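 VIP152 was run in DMSO, alongside a DMSO control. Readout was qPCR of DNA-tagged kinase still bound to bead-immobilized biotinylated kinase ligands after compound competition.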
# [2] = target: human kinome (Homo sapiens, UniProt P51817); settings: read-out: Percent Control
# Sequence of human kinome (Homo sapiens, UniProt P51817) (P51817 whole entry): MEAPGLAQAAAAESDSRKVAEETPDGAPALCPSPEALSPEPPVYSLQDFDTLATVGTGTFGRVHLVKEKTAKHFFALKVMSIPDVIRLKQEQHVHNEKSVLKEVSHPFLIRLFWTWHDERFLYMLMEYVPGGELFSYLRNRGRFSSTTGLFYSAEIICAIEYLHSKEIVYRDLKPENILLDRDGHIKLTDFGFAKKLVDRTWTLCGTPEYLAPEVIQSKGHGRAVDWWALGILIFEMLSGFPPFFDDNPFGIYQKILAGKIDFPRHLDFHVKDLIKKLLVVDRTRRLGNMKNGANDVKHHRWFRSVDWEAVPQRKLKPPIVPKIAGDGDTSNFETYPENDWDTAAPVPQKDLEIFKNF
# Method in brief: as §1
# [3] = target: human kinome (Homo sapiens, UniProt P35626); settings: GRK3 (Entrez ADRBK2); 100 nM; read-out: Percent Control
# Method in brief: as §1
# [4] = target: human kinome (Homo sapiens, UniProt O75582); settings: compound concentration 1000 nM, read-out: Percent Control
# Sequence of human kinome (Homo sapiens, UniProt O75582) (O75582 whole entry): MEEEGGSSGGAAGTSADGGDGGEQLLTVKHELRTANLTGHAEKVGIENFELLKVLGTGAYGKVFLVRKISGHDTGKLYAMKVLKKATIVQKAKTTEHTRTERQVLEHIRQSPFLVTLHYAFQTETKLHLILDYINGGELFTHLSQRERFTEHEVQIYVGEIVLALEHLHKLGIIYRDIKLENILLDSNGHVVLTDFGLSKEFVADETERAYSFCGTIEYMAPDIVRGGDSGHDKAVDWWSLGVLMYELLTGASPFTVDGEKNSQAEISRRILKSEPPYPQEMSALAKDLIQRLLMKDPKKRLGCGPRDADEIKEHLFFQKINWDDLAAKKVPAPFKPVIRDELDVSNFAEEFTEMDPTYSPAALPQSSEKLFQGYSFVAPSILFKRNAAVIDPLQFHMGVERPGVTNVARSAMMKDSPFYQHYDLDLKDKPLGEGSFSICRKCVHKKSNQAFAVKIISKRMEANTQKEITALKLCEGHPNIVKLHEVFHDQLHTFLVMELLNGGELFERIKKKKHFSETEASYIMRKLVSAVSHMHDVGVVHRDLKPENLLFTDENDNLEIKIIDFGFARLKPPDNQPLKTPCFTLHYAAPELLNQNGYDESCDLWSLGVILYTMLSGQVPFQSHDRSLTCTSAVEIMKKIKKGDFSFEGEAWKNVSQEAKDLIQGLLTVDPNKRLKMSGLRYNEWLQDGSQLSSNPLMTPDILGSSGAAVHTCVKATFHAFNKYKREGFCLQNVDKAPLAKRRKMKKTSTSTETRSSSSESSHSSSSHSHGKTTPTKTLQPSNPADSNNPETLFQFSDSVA
# Method in brief: as §1
# [5] = target: human kinome (Homo sapiens, UniProt Q9BUB5); settings: MKNK1; 100 nM; read-out: Percent Control
# Method in brief: as §1
# [6] = target: human kinome (Homo sapiens, UniProt P37023); settings: ACVRL1; 100 nM; read-out: Percent Control
# Method in brief: as §1
# [7] = target: human kinome (Homo sapiens, UniProt Q15569); settings: kinase TESK1 (Entrez TESK1); compound concentration 1000 nM; read-out: Percent Control
# Method in brief: as §1
# [8] = target: human kinome (Homo sapiens, UniProt O75460); settings: ERN1; 100 nM; read-out: Percent Control
# Method in brief: as §1
# [9] = target: human kinome (Homo sapiens, UniProt Q9HC98); settings: read-out: Percent Control
# Sequence of human kinome (Homo sapiens, UniProt Q9HC98) (Q9HC98 whole entry): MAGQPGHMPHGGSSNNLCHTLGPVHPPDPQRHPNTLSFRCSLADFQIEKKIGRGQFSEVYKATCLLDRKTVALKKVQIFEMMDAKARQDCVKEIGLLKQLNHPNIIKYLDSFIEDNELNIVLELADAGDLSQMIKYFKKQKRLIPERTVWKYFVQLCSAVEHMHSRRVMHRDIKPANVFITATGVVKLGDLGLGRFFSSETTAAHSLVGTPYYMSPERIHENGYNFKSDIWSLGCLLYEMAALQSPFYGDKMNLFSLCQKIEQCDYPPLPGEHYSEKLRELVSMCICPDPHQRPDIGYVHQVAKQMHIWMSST
# Method in brief: as §1
# [10] = target: human kinome (Homo sapiens, UniProt P48729); settings: CSNK1A1; 100 nM; read-out: Percent Control
# Sequence of human kinome (Homo sapiens, UniProt P48729) (P48729 whole entry): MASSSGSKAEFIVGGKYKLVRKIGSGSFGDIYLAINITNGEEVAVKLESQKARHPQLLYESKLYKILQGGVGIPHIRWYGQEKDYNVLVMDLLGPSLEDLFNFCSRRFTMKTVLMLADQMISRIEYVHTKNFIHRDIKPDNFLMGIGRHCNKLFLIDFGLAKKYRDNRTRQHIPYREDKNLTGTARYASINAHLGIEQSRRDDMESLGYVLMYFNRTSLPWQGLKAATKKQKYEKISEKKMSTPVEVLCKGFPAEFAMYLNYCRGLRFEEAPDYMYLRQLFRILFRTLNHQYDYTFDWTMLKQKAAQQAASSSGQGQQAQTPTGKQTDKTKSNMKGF
# Method in brief: as §1
# [11] = target: human kinome (Homo sapiens, UniProt P25098); settings: GRK2 (Entrez ADRBK1); 100 nM; read-out: Percent Control
# Method in brief: as §1
# [12] = target: human kinome (Homo sapiens, UniProt Q8IY84); settings: read-out: Percent Control
# Sequence of human kinome (Homo sapiens, UniProt Q8IY84) (Q8IY84 whole entry): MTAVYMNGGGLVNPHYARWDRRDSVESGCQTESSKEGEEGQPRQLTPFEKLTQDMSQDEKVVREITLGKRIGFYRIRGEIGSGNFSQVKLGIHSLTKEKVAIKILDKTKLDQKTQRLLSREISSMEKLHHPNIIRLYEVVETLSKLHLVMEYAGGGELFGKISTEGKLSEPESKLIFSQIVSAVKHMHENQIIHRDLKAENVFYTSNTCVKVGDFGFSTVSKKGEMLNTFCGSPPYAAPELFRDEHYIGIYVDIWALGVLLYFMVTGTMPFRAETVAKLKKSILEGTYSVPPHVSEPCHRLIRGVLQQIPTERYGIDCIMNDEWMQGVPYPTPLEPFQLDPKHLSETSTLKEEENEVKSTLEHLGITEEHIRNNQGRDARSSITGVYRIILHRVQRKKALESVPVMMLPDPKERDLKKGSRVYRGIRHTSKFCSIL
# Method in brief: as §1
# [13] = target: human kinome (Homo sapiens, UniProt P19525); settings: read-out: Percent Control
# Sequence of human kinome (Homo sapiens, UniProt P19525) (P19525 whole entry): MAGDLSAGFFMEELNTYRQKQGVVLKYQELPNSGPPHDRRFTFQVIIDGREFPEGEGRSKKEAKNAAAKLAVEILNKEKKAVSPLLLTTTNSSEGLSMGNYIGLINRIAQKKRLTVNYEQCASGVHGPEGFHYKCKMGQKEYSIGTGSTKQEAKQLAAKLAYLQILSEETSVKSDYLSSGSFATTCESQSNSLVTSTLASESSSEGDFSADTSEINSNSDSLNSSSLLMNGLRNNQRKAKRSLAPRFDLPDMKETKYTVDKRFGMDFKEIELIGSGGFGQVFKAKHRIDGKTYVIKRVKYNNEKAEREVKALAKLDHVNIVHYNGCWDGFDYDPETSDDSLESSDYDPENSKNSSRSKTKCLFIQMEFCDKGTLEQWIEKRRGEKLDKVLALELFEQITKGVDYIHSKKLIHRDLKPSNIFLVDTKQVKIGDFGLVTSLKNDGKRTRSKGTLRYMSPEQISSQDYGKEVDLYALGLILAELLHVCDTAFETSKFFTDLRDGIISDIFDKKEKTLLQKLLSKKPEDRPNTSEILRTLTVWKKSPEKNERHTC
# Method in brief: as §1
# [14] = target: human kinome (Homo sapiens, UniProt Q15759); settings: read-out: Percent Control
# Sequence of human kinome (Homo sapiens, UniProt Q15759) (Q15759 whole entry): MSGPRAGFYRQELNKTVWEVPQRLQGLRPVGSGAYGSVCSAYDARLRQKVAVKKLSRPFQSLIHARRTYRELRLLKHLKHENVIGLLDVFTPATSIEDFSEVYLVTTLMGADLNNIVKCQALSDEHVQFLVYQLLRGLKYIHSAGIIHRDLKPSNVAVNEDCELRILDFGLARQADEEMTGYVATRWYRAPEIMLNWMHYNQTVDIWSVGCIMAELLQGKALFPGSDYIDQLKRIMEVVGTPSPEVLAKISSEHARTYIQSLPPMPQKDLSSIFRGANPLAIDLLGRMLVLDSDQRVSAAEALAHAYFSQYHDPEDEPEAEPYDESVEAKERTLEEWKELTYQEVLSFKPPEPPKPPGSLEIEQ
# Method in brief: as §1
# [15] = target: human kinome (Homo sapiens, UniProt Q9NRM7); settings: LATS2; 100 nM; read-out: Percent Control
# Method in brief: as §1
# [16] = target: human kinome (Homo sapiens, UniProt P17948); settings: FLT1; 100 nM; read-out: Percent Control
# Method in brief: as §1
# [17] = target: human kinome (Homo sapiens, UniProt P45983); settings: JNK1 (Entrez MAPK8); 100 nM; read-out: Percent Control
# Method in brief: as §1
# [18] = target: human kinome (Homo sapiens, UniProt P21709); settings: EPHA1; 100 nM; read-out: Percent Control
# Method in brief: as §1
# [19] = target: human kinome (Homo sapiens, UniProt P00533, L858R/T790M); settings: EGFR(L858R,T790M); 100 nM; read-out: Percent Control
# Method in brief: as §1
# [20] = target: human kinome (Homo sapiens, UniProt Q9UPZ9); settings: ICK; 100 nM; read-out: Percent Control
# Method in brief: as §1
# [21] = target: human kinome (Homo sapiens, UniProt Q86Y07); settings: kinase VRK2 (Entrez VRK2); compound concentration 1000 nM; read-out: Percent Control
# Method in brief: as §1
# [22] = target: human kinome (Homo sapiens, UniProt Q9UK32); settings: compound concentration 1000 nM, read-out: Percent Control
# Sequence of human kinome (Homo sapiens, UniProt Q9UK32) (Q9UK32 whole entry): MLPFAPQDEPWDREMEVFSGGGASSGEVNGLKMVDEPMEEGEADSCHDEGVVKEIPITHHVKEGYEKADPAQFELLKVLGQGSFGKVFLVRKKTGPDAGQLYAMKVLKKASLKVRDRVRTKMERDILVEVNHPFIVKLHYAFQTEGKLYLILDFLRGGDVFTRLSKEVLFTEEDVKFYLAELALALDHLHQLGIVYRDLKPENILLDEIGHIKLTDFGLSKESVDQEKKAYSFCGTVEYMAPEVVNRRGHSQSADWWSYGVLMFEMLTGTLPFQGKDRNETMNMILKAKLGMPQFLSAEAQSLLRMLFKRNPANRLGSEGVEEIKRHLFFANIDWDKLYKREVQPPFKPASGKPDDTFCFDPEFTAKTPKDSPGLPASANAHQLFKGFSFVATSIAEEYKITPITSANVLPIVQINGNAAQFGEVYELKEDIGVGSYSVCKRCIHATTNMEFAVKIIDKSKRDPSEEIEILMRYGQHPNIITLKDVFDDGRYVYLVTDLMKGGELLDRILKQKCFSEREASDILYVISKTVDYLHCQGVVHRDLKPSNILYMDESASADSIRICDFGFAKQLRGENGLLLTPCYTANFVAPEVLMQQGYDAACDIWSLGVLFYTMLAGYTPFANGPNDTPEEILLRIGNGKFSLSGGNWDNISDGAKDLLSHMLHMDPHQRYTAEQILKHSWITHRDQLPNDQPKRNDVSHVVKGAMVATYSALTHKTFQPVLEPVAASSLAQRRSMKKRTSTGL
# Method in brief: as §1
# [23] = target: human kinome (Homo sapiens, UniProt Q96PN8); settings: kinase TSSK3 (Entrez TSSK3); compound concentration 1000 nM; read-out: Percent Control
# Method in brief: as §1
# [24] = target: human kinome (Homo sapiens, UniProt P21802); settings: FGFR2; 100 nM; read-out: Percent Control
# Method in brief: as §1
# [25] = target: human kinome (Homo sapiens, UniProt P22607, G697C); settings: FGFR3(G697C); 100 nM; read-out: Percent Control
# Method in brief: as §1
# [26] = target: human kinome (Homo sapiens, UniProt P07949, V804M); settings: kinase RET(V804M) (Entrez RET); compound concentration 1000 nM; read-out: Percent Control
# Method in brief: as §1
# [27] = target: human kinome (Homo sapiens, UniProt P42336, H1047Y); settings: read-out: Percent Control
# Sequence of human kinome (Homo sapiens, UniProt P42336, H1047Y) (P42336 whole entry H1047Y): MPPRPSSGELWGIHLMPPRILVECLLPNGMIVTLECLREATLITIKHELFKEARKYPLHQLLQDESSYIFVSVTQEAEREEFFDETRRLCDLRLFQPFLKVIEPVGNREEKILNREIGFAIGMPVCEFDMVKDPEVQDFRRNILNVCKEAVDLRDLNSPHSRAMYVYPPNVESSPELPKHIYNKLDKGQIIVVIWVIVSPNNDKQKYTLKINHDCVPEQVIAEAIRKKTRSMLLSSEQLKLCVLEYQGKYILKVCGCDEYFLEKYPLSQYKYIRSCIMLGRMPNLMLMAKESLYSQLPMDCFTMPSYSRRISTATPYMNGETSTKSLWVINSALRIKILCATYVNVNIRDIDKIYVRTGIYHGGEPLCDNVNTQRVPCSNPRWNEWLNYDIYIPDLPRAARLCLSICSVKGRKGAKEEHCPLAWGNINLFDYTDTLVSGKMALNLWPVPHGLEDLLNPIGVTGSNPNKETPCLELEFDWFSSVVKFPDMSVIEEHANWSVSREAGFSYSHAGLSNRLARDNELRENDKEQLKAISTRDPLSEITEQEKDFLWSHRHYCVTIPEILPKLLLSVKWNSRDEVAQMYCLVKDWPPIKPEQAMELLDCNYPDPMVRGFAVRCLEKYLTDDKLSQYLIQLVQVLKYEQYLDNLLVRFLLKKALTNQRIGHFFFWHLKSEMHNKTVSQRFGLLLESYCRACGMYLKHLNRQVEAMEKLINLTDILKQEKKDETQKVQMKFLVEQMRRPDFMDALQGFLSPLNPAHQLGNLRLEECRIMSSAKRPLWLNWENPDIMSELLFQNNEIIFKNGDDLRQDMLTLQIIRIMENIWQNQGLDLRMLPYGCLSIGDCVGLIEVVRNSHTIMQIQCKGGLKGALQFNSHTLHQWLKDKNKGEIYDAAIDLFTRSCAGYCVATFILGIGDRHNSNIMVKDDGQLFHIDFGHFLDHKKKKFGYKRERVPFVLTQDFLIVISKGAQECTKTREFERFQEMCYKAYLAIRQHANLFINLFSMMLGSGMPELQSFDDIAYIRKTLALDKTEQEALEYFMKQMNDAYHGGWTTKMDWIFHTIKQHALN
# Method in brief: as §1
# [28] = target: human kinome (Homo sapiens, UniProt P51813); settings: BMX; 100 nM; read-out: Percent Control
# Method in brief: as §1
# [29] = target: human kinome (Homo sapiens, UniProt P19784); settings: CSNK2A2; 100 nM; read-out: Percent Control
# Method in brief: as §1
smiles,measurement,setting,value
COc1cc(F)ccc1-c1cc(Nc2cc(CS(C)(=N)=O)ccn2)ncc1F (stereo not shown) [VIP152],remaining binding at 0.1 µM,[1],100%
same,remaining binding at 0.1 µM,"[2]; PRKX, 100 nM",100%
same,remaining binding at 1 µM,"[2]; kinase PRKX (Entrez PRKX), compound concentration 1000 nM",99%
same,remaining binding at 0.1 µM,[3],89%
same,remaining binding at 1 µM,[4]; kinase RPS6KA5(Kin.Dom.1-N-terminal) (Entrez RPS6KA5),100%
same,remaining binding at 1 µM,[4]; kinase RPS6KA5(Kin.Dom.2-C-terminal) (Entrez RPS6KA5),100%
same,remaining binding at 0.1 µM,[5],94%
same,remaining binding at 0.1 µM,[6],77%
same,remaining binding at 1 µM,[7],92%
same,remaining binding at 0.1 µM,[8],88%
same,remaining binding at 0.1 µM,"[9]; NEK6, 100 nM",100%
same,remaining binding at 1 µM,"[9]; kinase NEK6 (Entrez NEK6), compound concentration 1000 nM",93%
same,remaining binding at 0.1 µM,[10],79%
same,remaining binding at 0.1 µM,[11],100%
same,remaining binding at 0.1 µM,"[12]; NIM1 (Entrez MGC42105), 100 nM",100%
same,remaining binding at 1 µM,"[12]; kinase NIM1 (Entrez MGC42105), compound concentration 1000 nM",86%
same,remaining binding at 0.1 µM,"[13]; PRKR (Entrez EIF2AK2), 100 nM",100%
same,remaining binding at 1 µM,"[13]; kinase PRKR (Entrez EIF2AK2), compound concentration 1000 nM",100%
same,remaining binding at 1 µM,"[14]; kinase p38-beta (Entrez MAPK11), compound concentration 1000 nM",100%
same,remaining binding at 0.1 µM,"[14]; p38-beta (Entrez MAPK11), 100 nM",100%
same,remaining binding at 0.1 µM,[15],99%
same,remaining binding at 0.1 µM,[16],100%
same,remaining binding at 0.1 µM,[17],98%
same,remaining binding at 0.1 µM,[18],100%
same,remaining binding at 0.1 µM,[19],93%
same,remaining binding at 0.1 µM,[20],95%
same,remaining binding at 1 µM,[21],81%
same,remaining binding at 1 µM,[22]; kinase RSK4(Kin.Dom.1-N-terminal) (Entrez RPS6KA6),94%
same,remaining binding at 1 µM,[22]; kinase RSK4(Kin.Dom.2-C-terminal) (Entrez RPS6KA6),89%
same,remaining binding at 1 µM,[23],76%
same,remaining binding at 0.1 µM,[24],100%
same,remaining binding at 0.1 µM,[25],100%
same,remaining binding at 1 µM,[26],92%
same,remaining binding at 0.1 µM,"[27]; PIK3CA(H1047Y), 100 nM",74%
same,remaining binding at 1 µM,"[27]; kinase PIK3CA(H1047Y) (Entrez PIK3CA), compound concentration 1000 nM",85%
same,remaining binding at 0.1 µM,[28],100%
same,remaining binding at 0.1 µM,[29],100%
